Reference: patent US20230049330A1, “USE OF QX314 TO PREVENT SYMPATHO[…] ADMINISTRATION OF TRPV1 MODULATORS” (NEUCURES, INC., priority 2020, published 2023)

Test system: pigs
Assay: Intrapericardial administration of RTX alone or RTX in combination with QX-314 in anesthetized pigs; heart rate and blood pressure
Type: in vivo
Conditions: 15 mL, RTX 12.5 µg/mL, QX-314 10, 20, 30 or 40 µM where combined, aspirated after 20 minutes
Experimental: We evaluated the effects of the TRPV1 modulator RTX alone and in combination with QX-314 on cardiovascular function, specifically heart rate and blood pressure, in pigs. Animals were first sedated with telazol (4-8 mg/kg, intramuscular), intubated, and mechanically ventilated. General anesthesia was maintained with isoflurane (1-2%, inhaled). A 12-lead surface electrocardiogram and arterial blood pressure were continuously obtained using a GE Healthcare CardioLab system. Local anesthesia with 1% lidocaine was then administered to the left sternocostal angle before making a small incision. Percutaneous access into the pericardial space was obtained using a Touhy needle under fluoroscopic guidance (see FIG. 1). Contrast was used to visualize the advancement of the needle tip, and intrapericardial access was confirmed by passing a wire through the needle and inducing cardiac ectopy. After confirming access, a sheath was introduced into the pericardial space over the wire. A 12.5 µg/mL RTX solution was prepared by first creating a stock solution of 0.1 mg/mL by dissolving 0.5 mg of RTX powder in 2.5 mL of dimethyl sulfoxide and 2.5 mL of 0.9% sodium chloride, and then diluting the stock solution to 12.5 µg/mL by adding 1.87 mL of it to 13.13 mL of 0.9% sodium chloride. […]

C=C(C)[C@]12C[C@@H](C)[C@@]34O[C@](Cc5ccccc5)(O[C@@H]1[C@@H]3C=C(COC(=O)Cc1ccc(O)c(OC)c1)C[C@]1(O)C(=O)C(C)=C[C@@H]41)O2 [RTX, resiniferatoxin]
blood pressure change from baseline (FIG. 2B, FIG. 2C): significant increase | heart rate change from baseline (FIG. 2A): significant increase
